Results on two compounds are retold here after US20130023501A1, “PHARMACEUTICAL COMPOSITION COMPRISING SOLVENT MIXTURE AND A VITAMIN D DERIVATIVE OR ANALOGUE” (LEO PHARMA A/S, priority 2009, published 2013).

For data set [1] the following is noted: one study, Hannuksela et al. 1975; cited from earlier work.
Data set [2] is described as follows: Amount of MCT required to dissolve calcipotriol in a tested ointment composition. It is filed as physicochemical.
Data set [3] is described as follows: Skin penetration and permeation, Franz diffusion cells. Conditions: addition of menthol to the composition; 21 hours; pig ear skin; FIG. 1. It counts as in vitro ADME. Here is the method:
To investigate the skin penetration and permeation of calcipotriol from compositions of the invention, a skin diffusion experiment was conducted. Full thickness skin from pig ears was used in the study. The ears were kept frozen at −18° C. before use. On the day prior to the experiment the ears were placed in a refrigerator (5±3° C.) for slow defrosting. On the day of the experiment, the hairs were removed using a veterinary hair trimmer. The skin was cleaned for subcutaneous fat using a scalpel and two pieces of skin were cut from each ear and mounted on Franz diffusion cells in a balanced order.
Static Franz-type diffusion cells with an available diffusion area of 3.14 cm^2 and receptor volumes ranging from 8.6 to 11.1 ml—were used in substantially the manner described by T. J. Franz, “The finite dose technique as a valid in vitro model for the study of percutaneous absorption in man”, in Current Problems in Dermatology, 1978, J. W. H. Mall (Ed.), Karger, Basel, pp. 58-68. The specific volume was measured and registered for each cell. A magnetic bar was placed in the receptor compartment of each cell. […]
The in vitro skin permeation of each test composition was tested in 6 replicates (i.e. n=6). […] A glass spatula was used for the application, and the residual amount of the composition was determined so as to give the amount of the composition actually applied on the skin. […]

For the compound `CC(O)CO` (stereo not drawn) [propylene glycol], the “number of irritant reactions to propylene glycol” value in data set [1] is 12.5%.

Regarding `C=C1/C(=C\C=C2/CCC[C@]3(C)[C@@H]([C@H](C)/C=C/[C@@H](O)C4CC4)CC[C@@H]23)C[C@@H](O)C[C@@H]1O` [calcipotriol, Calcipotriol], in data set [2], the “MCT required to completely dissolve calcipotriol” value is “about 50%”. In addition, the “skin permeation of calcipotriol” value in data set [3] was “significant increase”.
